Source: ChEMBL document CHEMBL1159254, “Isolation and structure of two novel muscarinic receptor antagonists” (J Nat Prod, 1995)

Assays:
[1] = molecular target: T1, Muscarinic acetylcholine receptor M2 (Homo sapiens, UniProt P08172); assay: Displacement of QNB from muscarinic M2 receptor
T1 sequence (P08172 whole entry): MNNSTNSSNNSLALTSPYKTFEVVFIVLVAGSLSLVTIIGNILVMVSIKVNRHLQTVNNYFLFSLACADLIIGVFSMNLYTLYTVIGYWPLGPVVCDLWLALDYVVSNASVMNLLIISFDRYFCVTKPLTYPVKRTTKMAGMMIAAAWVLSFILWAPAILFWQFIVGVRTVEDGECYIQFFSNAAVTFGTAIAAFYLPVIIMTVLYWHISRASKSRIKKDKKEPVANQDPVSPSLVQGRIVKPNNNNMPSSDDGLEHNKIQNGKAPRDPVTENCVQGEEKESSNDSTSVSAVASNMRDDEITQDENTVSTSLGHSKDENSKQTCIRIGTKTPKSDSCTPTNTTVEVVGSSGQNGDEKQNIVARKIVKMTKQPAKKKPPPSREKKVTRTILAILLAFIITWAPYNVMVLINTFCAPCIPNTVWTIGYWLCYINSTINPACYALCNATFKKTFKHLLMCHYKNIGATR

[2] = molecular target: T2, Muscarinic acetylcholine receptor M1 (Homo sapiens, UniProt P11229); assay: Displacement of QNB from muscarinic M1 receptor
T2 sequence (P11229 whole entry): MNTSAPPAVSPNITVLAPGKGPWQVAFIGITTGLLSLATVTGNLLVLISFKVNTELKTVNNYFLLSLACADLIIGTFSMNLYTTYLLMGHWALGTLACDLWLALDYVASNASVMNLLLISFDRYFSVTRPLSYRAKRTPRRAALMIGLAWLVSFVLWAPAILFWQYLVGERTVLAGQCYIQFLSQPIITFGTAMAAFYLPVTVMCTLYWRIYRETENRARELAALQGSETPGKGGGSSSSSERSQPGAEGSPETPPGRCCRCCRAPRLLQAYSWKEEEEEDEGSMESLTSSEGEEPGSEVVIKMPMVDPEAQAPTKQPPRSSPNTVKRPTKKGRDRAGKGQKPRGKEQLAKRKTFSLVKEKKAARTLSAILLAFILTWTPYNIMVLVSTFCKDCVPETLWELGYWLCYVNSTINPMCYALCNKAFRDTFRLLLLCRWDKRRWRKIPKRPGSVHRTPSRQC

[3] = molecular target: T3, Muscarinic acetylcholine receptor M4 (Homo sapiens, UniProt P08173); assay: Displacement of QNB from muscarinic M4 receptor
T3 sequence (P08173 whole entry): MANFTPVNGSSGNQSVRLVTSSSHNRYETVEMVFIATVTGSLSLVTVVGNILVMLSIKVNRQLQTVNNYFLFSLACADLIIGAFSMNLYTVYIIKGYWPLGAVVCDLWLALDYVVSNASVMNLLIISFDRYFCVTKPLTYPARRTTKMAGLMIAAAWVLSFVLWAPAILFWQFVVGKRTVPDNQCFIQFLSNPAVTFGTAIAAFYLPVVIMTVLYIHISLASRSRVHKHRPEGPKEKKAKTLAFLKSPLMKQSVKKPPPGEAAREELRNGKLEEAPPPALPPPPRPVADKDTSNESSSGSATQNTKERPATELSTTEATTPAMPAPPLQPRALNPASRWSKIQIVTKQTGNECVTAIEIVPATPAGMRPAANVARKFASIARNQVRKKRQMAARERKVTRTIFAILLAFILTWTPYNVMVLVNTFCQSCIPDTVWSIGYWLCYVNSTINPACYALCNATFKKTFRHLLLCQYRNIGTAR

SMILES | IC50 [1] | IC50 [2] | IC50 [3]
NC(N)=NCCCCCCCCC(=O)C(N)CCCN=C(N)N (stereo unspecified) | 6 nM | 7 nM | 10 nM
CC(=O)NC(CCCNC(=N)N)C(=O)CCCCCCCCNC(=N)N (stereo unspecified) | 960 nM | 1410 nM | 910 nM
